SMILES strings stand for the structures. Structures can show the parent of a compound that is named as a salt. Where two headings read alike, the source gives them in different places.

Consider 28 compounds from US12435061B2 (priority 2020, dated 2025).

The test deals with hTRPV3 (Homo sapiens (Human), UniProt Q8NET8). In words: Whole-cell patch clamp, hTRPV3 Phase 1 / Phase 2 currents. The class given is cell-based. Put shortly: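 Currents are activated by 20 μM 2-APB or by perfusate at 28 °C or warmer, in Ringer's solution, and quantified at ±80 mV.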
hTRPV3, sequence (Q8NET8 whole entry): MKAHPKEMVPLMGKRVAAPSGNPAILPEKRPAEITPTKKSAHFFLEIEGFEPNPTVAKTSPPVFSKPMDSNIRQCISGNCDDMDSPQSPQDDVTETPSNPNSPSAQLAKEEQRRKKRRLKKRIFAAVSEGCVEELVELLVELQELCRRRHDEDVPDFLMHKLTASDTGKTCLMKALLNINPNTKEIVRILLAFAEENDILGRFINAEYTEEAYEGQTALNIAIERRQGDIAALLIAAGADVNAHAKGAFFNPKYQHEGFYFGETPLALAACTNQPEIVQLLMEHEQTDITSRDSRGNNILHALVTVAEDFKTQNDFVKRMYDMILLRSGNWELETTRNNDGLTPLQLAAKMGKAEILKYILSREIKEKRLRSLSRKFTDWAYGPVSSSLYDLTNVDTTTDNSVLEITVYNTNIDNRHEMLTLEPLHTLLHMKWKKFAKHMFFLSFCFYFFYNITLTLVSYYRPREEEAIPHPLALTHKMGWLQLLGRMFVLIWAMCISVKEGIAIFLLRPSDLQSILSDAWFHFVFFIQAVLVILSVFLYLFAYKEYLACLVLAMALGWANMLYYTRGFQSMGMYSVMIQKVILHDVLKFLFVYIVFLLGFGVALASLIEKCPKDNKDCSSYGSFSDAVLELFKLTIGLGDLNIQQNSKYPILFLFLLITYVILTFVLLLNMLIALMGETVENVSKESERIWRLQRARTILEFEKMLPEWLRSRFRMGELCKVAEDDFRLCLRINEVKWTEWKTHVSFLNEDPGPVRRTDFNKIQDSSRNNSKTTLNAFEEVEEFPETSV
Where [1] appears, read: Phase 1 current, inward, whole-cell patch clamp, read-out: hTRPV3 Patch P1 Inwd.
[2] abbreviates: Phase 1 current, read-out: hTRPV3 (nM) (Phase 1).
Setting [3] is: Phase 2 current, inward, whole-cell patch clamp, read-out: hTRPV3 Patch P2 Inwd.
The mark [4] stands for this setting: Phase 2 current, read-out: hTRPV3 (nM) (Phase 2).

On to `O=C1C(Oc2ccc3ccccc3n2)CCN1c1ccccc1` (stereo not drawn) [Compound 1-104, 1-phenyl-3-(quinolin-2-yloxy)pyrrolidin-2-one], for which the IC50 is, setting by setting: under setting [1], over 1000 nM; under setting [2], over 3200 nM.

As for `NC(=O)c1ccccc1N1CCC(Oc2ccc3ccccc3n2)C1=O` (stereo not drawn) [Compound 1-105, 2-(2-oxo-3-(quinolin-2-yloxy)pyrrolidin-1-yl)benzamide], the IC50 by setting is: under setting [1], over 1000 nM; under setting [2], over 3200 nM.

For the compound `O=C1C(Oc2ccc3ccccc3n2)CCN1c1ccccc1Cl` (stereo not drawn) [Compound 1-106, 1-(2-chlorophenyl)-3-(quinolin-2-yloxy)pyrrolidin-2-one], the IC50 is over 1000 nM under setting [1], over 3200 nM under setting [2], over 1000 nM under setting [3] and over 3200 nM under setting [4].

Consider `NC(=O)c1cc(-c2ncc[nH]2)ccc1N1CC[C@@H](Oc2ccc(C(F)(F)F)cn2)C1` [Compound 1-107, (R)-5-(1H-imidazol-2-yl)-2-(3-(5-(trifluoromethyl)pyridin-2-yloxy)pyrrolidin-1-yl)benzamide], for which the IC50 is over 1000 nM under setting [1], over 1000 nM under setting [2], over 1000 nM under setting [3] and over 1000 nM under setting [4].

`N#Cc1cc(-c2ccccc2)ccc1N1CCC(Oc2ccc3ccccc3n2)C1=O` (stereo not drawn) [Compound 1-108, 4-(2-oxo-3-(quinolin-2-yloxy)pyrrolidin-1-yl)biphenyl-3-carbonitrile]: the IC50 is, setting by setting: under setting [3], over 1000 nM; under setting [4], over 3200 nM.

With `COc1cc(-c2ccccc2Cl)ccc1N1CC[C@@H](Oc2ccc(C(F)(F)F)cn2)C1` [Compound 1-112, (R)-2-(1-(2′-chloro-3-methoxybiphenyl-4-yl)pyrrolidin-3-yloxy)-5-(trifluoromethyl)pyridine], the IC50 was over 1000 nM under setting [1] and about 2900 nM under setting [2]. In addition, the “hTRPV3 (nM) (Phase 2)” value (Phase 2 current) is recorded as “Incomplete Block”.

`NC(=O)c1cc(-c2ccccc2Cl)ccc1N1CCC(Oc2ccc3ccccc3n2)C1=O` (stereo not drawn) [Compound 1-114, 2′-chloro-4-(2-oxo-3-(quinolin-2-yloxy)pyrrolidin-1-yl)biphenyl-3-carboxamide]: the IC50 was over 1000 nM under setting [1], about 3900 nM under setting [2], over 1000 nM under setting [3] and about 3150 nM under setting [4].

Regarding `Nc1cc(-c2ccccc2Cl)ccc1N1CC[C@@H](Oc2ccc(C(F)(F)F)cn2)C1` [Compound 1-116], for the setting “Phase 1 current”, the “hTRPV3 (nM) (Phase 1)” value is reported as “Agonist/ Antagonist (Phase 1) Agonist/ Antagonist (Phase 2)”. The “hTRPV3 (nM) (Phase 2)” value (Phase 2 current) is “Agonist/ Antagonist (Phase 1) Agonist/ Antagonist (Phase 2)”.

With `NCc1cc(-c2ccccc2Cl)ccc1N1CC[C@H](Oc2ccc(C(F)(F)F)cn2)C1` [Compound 1-118, (S)-(2′-chloro-4-(3-(5-(trifluoromethyl)pyridin-2-yloxy)pyrrolidin-1-yl)biphenyl-3-yl)methanamine], the IC50 by setting is: under setting [1], over 1000 nM; under setting [2], about 1300 nM; under setting [3], over 1000 nM; under setting [4], under 3200 nM.

Regarding `NCc1cc(-c2ccccc2)ccc1N1CC[C@H](Oc2ccc(C(F)(F)F)cn2)C1` [Compound 1-119, (S)-(4-(3-(5-(trifluoromethyl)pyridin-2-yloxy)pyrrolidin-1-yl)biphenyl-3-yl)methanamine], the IC50 is over 1000 nM under setting [3] and over 3200 nM under setting [4].

Turning to `COc1cc(-c2ccccc2)ccc1N1CC[C@@H](Oc2ncc(C(F)(F)F)cc2Cl)C1` [Compound 1-120, (R)-3-chloro-2-(1-(3-methoxybiphenyl-4-yl)pyrrolidin-3-yloxy)-5-(trifluoromethyl)pyridine], the IC50 runs as follows: under setting [2], over 3200 nM; under setting [4], over 3200 nM; (hTRPV3 Patch P1 Inwd (nM), Phase 1 current, inward, whole-cell patch clamp) over 1000 nM; (hTRPV3 Patch P2 Inwd (nM), Phase 2 current, inward, whole-cell patch clamp) over 1000 nM.

As to `NCc1cc(-c2ccccc2Cl)ccc1N1CC[C@H](Oc2ncccc2Cl)C1` [Compound 1-122, (S)-(2′-chloro-4-(3-(3-chloropyridin-2-yloxy)pyrrolidin-1-yl)biphenyl-3-yl)methanamine hydrochloride], the IC50 is over 1000 nM under setting [1], over 3200 nM under setting [2], over 1000 nM under setting [3] and under 3200 nM under setting [4].

As to `NC(=O)c1cc(-c2ccccc2)ccc1N1CCC(Oc2ccc3ccccc3n2)C1=O` (stereo not drawn) [Compound 1-123, 4-(2-oxo-3-(quinolin-2-yloxy)pyrrolidin-1-yl)biphenyl-3-carboxamide], the IC50 by setting is: under setting [1], over 1000 nM; under setting [2], over 3200 nM.

In the case of `NC(=O)c1cc(Oc2ccccc2)ccc1N1CC[C@H](Oc2ccc(C(F)(F)F)cn2)C1` [Compound 1-124, (S)-5-phenoxy-2-(3-(5-(trifluoromethyl)pyridin-2-yloxy)pyrrolidin-1-yl)benzamide], the IC50 reads like this: (hTRPV3 Patch P1 Inwd (nM)) 100 to 1000 nM; (read-out: hTRPV3 (nM) (Phase 1)) 729 nM.

For `NCc1cc(-c2ccccc2)ccc1N1CC[C@H](Oc2ncccc2Cl)C1` [Compound 1-125, (S)-(4-(3-(3-chloropyridin-2-yloxy)pyrrolidin-1-yl)biphenyl-3-yl)methanamine hydrochloride], the IC50 is, setting by setting: under setting [3], over 1000 nM; under setting [4], over 3200 nM.

As to `OCc1cc(-c2ccccc2)ccc1N1CC[C@H](Oc2ncccc2Cl)C1` [Compound 1-126, (S)-(4-(3-(3-chloropyridin-2-yloxy)pyrrolidin-1-yl)biphenyl-3-yl)methanol], the IC50 runs as follows: under setting [3], 100 to 1000 nM; under setting [4], 369 nM.

Regarding `CC(=O)NCc1cc(-c2ccccc2Cl)ccc1N1CC[C@H](Oc2ccc(C(F)(F)F)cn2)C1` [Compound 1-127, (S)—N-((2′-chloro-4-(3-(5-(trifluoromethyl)pyridin-2-yloxy)pyrrolidin-1-yl)biphenyl-3-yl)methyl)acetamide], the IC50 is over 1000 nM under setting [3] and 1140 nM under setting [4].

On to `NC(=O)c1ccc(O[C@H]2CCN(c3ccc(-c4ccccc4)cc3CO)C2)nc1` [Compound 1-144, (S)-6-(1-(3-(hydroxymethyl)biphenyl-4-yl)pyrrolidin-3-yloxy)nicotinamide], for which the IC50 is, setting by setting: under setting [1], over 1000 nM; under setting [2], 1280 nM; under setting [3], over 1000 nM; under setting [4], 4220 nM.

Take `NC(=O)c1cc(Cc2ccccc2)ccc1N1CC[C@H](Oc2ncccc2Cl)C1` [Compound 1-145, (S)-5-benzyl-2-(3-(3-chloropyridin-2-yloxy)pyrrolidin-1-yl)benzamide]: the IC50 is over 1000 nM under setting [1], 1950 nM under setting [2], 100 to 1000 nM under setting [3] and 749 nM under setting [4].

Regarding `OCc1cc(-c2ccccc2)ccc1N1CC[C@H](Oc2ccc(Cl)cn2)C1` [Compound 1-147, (S)-(4-(3-(5-chloropyridin-2-yloxy)pyrrolidin-1-yl)biphenyl-3-yl)methanol], the IC50 reads like this: under setting [1], 100 to 1000 nM; under setting [2], 171 nM.

In the case of `OCC(O)c1cc(-c2ccccc2)ccc1N1CC[C@H](Oc2ccc(C(F)(F)F)cn2)C1` (stereo partly drawn) [Compound 1-148, 1-(4-((S)-3-(5-(trifluoromethyl)pyridin-2-yloxy)pyrrolidin-1-yl)biphenyl-3-yl)ethane-1,2-diol], the IC50 under setting [1] lay in the range of 100 to 1000 nM, the IC50 under setting [2] stood at 550 nM, the IC50 under setting [3] was in the range of 100 to 1000 nM and the IC50 under setting [4] came out at 699 nM.

As to `CCc1ccccc1-c1ccc(N2CC[C@H](Oc3ccc(C(F)(F)F)cn3)C2)c(CO)c1` [Compound 1-149, (S)-(2′-ethyl-4-(3-(5-(trifluoromethyl)pyridin-2-yloxy)pyrrolidin-1-yl)biphenyl-3-yl)methanol], the IC50 by setting is: under setting [1], 10 to 100 nM; under setting [2], 34.7 nM; under setting [3], under 10 nM; under setting [4], 10.7 nM.

Regarding `OCc1cc(-c2ccccc2F)ccc1N1CC[C@H](Oc2ccc(C(F)(F)F)cn2)C1` [Compound 1-150, (S)-(2′-fluoro-4-(3-(5-(trifluoromethyl)pyridin-2-yloxy)pyrrolidin-1-yl)biphenyl-3-yl)methanol], the IC50 is 10 to 100 nM under setting [1], 71.7 nM under setting [2], 10 to 100 nM under setting [3] and 74.7 nM under setting [4].

As to `O=C(NCCO)c1cc(-c2ccccc2)ccc1N1CC[C@H](Oc2ccc(C(F)(F)F)cn2)C1` [Compound 1-153, (S)—N-(2-hydroxyethyl)-4-(3-(5-(trifluoromethyl)pyridin-2-yloxy)pyrrolidin-1-yl)biphenyl-3-carboxamide], the IC50 was over 1000 nM under setting [1] and 4420 nM under setting [2].

`O=C(NCCO)c1cc(-c2ccccc2Cl)ccc1N1CC[C@H](Oc2ccc(C(F)(F)F)cn2)C1` [Compound 1-156, (S)-2′-chloro-N-(2-hydroxyethyl)-4-(3-(5-(trifluoromethyl)pyridin-2-yloxy)pyrrolidin-1-yl)biphenyl-3-carboxamide]: the IC50 runs as follows: under setting [1], over 1000 nM; under setting [2], 3750 nM.

On to `Cc1cccnc1O[C@H]1CCN(c2ccc(Oc3ccccc3)cc2C(N)=O)C1` [Compound 1-163], for which the IC50 is, setting by setting: under setting [1], over 1000 nM; under setting [2], 2180 nM.

Turning to `O=C(O)c1cc(-c2ccccc2)ccc1N1CC[C@H](Oc2ccc(C(F)(F)F)cn2)C1` [Compound 1-165, (S)-4-(3-(5-(trifluoromethyl)pyridin-2-yloxy)pyrrolidin-1-yl)biphenyl-3-carboxylic acid], the IC50 under setting [1] is over 1000 nM and the IC50 under setting [2] is over 3200 nM.

Take `O=C(O)c1cc(-c2ccccc2Cl)ccc1N1CC[C@H](Oc2ccc(C(F)(F)F)cn2)C1` [Compound 1-166, (S)-2′-chloro-4-(3-(5-(trifluoromethyl)pyridin-2-yloxy)pyrrolidin-1-yl)biphenyl-3-carboxylic acid]: the IC50 by setting is: under setting [1], over 1000 nM; under setting [2], about 2210 nM; under setting [3], over 1000 nM; under setting [4], about 2230 nM.
